Several values for one entry are separate records, joined by “and”; a condition that tells them apart may be missing. Equal values may be shown once. Read-outs that look alike come from different tables or passages of the source. One block for each compound: values may come before it.
Key:
SF-539 = test: NCI in vitro five dose anticancer assay; assay type: cell-based, human
SN12C = test: NCI in vitro five dose anticancer assay; assay type: cell-based, human
PI3K-β = PI3K-β (Homo sapiens, UniProt P42338); test: PI3K biochemical assay
OVCAR-8 = test: NCI in vitro five dose anticancer assay; assay type: cell-based, human
NCI-H522 = test: NCI in vitro five dose anticancer assay; assay type: cell-based, human
SF-268 = test: NCI in vitro five dose anticancer assay; assay type: cell-based, human
IGROV1 = test: NCI in vitro five dose anticancer assay; assay type: cell-based, human
PI3K-γ = PI3K-γ (Homo sapiens, UniProt P48736); test: PI3K biochemical assay
class I PI3K enzymes = test: PI3K biochemical assay, all isoforms stated jointly; details: read-out: IC50s against the different PI3K isoforms; range over PI3K-α, β, γ, δ
[1] = system: Bcl-2, Bax, and cleaved caspases (3, 8, and 9) in A549 cells; test: Western blotting, apoptosis markers; assay type: cell-based, human; details: 48 h, 1, 3 and 6 μM, western blot; for levels of Bax / levels of cleaved caspase 3 / levels of cleaved caspase 9: dose-dependent
BT-549 = test: NCI in vitro five dose anticancer assay; assay type: cell-based, human
NCI/ADR-RES = test: NCI in vitro five dose anticancer assay; assay type: cell-based, human
RXF 393 = test: NCI in vitro five dose anticancer assay; assay type: cell-based, human
HS 578T = test: NCI in vitro five dose anticancer assay; assay type: cell-based, human
UACC-257 = test: NCI in vitro five dose anticancer assay; assay type: cell-based, human
SK-MEL-5 = test: NCI in vitro five dose anticancer assay; assay type: cell-based, human
K-562 cells [2] = test: Cell cycle analysis by flow cytometry; assay type: cell-based, human; details: 24 h
HL-60(TB) = test: NCI in vitro five dose anticancer assay; assay type: cell-based, human
TK-10 = test: NCI in vitro five dose anticancer assay; assay type: cell-based, human
NCI-H460 = test: NCI in vitro five dose anticancer assay; assay type: cell-based, human
[3] = system: p53, p21, cyclin B1 and Cdc2 in A549 cells; test: Western blotting, p53 and cell cycle regulators; assay type: cell-based, human; details: 1, 3 and 6 μM, western blot; for expression of Cdc2 / expression of cyclin B1 / expression of p21: dose dependent
[4] = system: human lung adenocarcinoma A549; test: Trypan blue exclusion cytotoxicity assay
A549 cells [5] = test: Cell cycle analysis by flow cytometry; assay type: cell-based, human; details: 24 h
UACC-62 = test: NCI in vitro five dose anticancer assay; assay type: cell-based, human
HCC-2998 = test: NCI in vitro five dose anticancer assay; assay type: cell-based, human
MDA-MB-435 = test: NCI in vitro five dose anticancer assay; assay type: cell-based, human
SK-MEL-28 = test: NCI in vitro five dose anticancer assay; assay type: cell-based, human
MALME-3M = test: NCI in vitro five dose anticancer assay; assay type: cell-based, human
A549 cells [6] = test: Apoptosis, annexin V-FITC/PI flow cytometry; assay type: cell-based, human; details: for percentage of apoptotic cells: 48 h; for proportion of apoptotic cells compared to control: 1, 3, or 6 μM, 24 h, data not shown
SR = test: NCI in vitro five dose anticancer assay; assay type: cell-based, human
[7] = system: p53, p21, cyclin B1 and Cdc2 in K-562 cells; test: Western blotting, p53 and cell cycle regulators; assay type: cell-based, human; details: 1, 3 and 6 μM, western blot; for expression of Cdc2 / expression of cyclin B1 / expression of p21: dose dependent
LOX IMVI = test: NCI in vitro five dose anticancer assay; assay type: cell-based, human
K-562 cells [8] = test: Apoptosis, annexin V-FITC/PI flow cytometry; assay type: cell-based, human; details: 24 h
A549 and K-562 cells = test: Cytotoxicity IC50 stated jointly for the 2 cell lines; assay type: cell-based, human; details: read-out: IC50 against the 2 cell lines tested
UO-31 = test: NCI in vitro five dose anticancer assay; assay type: cell-based, human
PI3K-δ = PI3K-δ (Homo sapiens, UniProt O00329); test: PI3K biochemical assay
M14 = test: NCI in vitro five dose anticancer assay; assay type: cell-based, human
MDA-MB231/ATCC = test: NCI in vitro five dose anticancer assay; assay type: cell-based, human
COLO 205 = test: NCI in vitro five dose anticancer assay; assay type: cell-based, human
A549/ATCC = test: NCI in vitro five dose anticancer assay; assay type: cell-based, human
DU-145 = test: NCI in vitro five dose anticancer assay; assay type: cell-based, human
MDA-MB-468 = test: NCI in vitro five dose anticancer assay; assay type: cell-based, human
A498 = test: NCI in vitro five dose anticancer assay; assay type: cell-based, human
HOP-62 = test: NCI in vitro five dose anticancer assay; assay type: cell-based, human
[9] = read-out: A549 (IC50 μM), trypan blue exclusion, 24 h, mean ± SD
[10] = Ovarian cancer, five dose assay
[11] = Non-small cell lung cancer, five dose assay

Chain of PI3K-γ (P48736 whole entry, canonical isoform): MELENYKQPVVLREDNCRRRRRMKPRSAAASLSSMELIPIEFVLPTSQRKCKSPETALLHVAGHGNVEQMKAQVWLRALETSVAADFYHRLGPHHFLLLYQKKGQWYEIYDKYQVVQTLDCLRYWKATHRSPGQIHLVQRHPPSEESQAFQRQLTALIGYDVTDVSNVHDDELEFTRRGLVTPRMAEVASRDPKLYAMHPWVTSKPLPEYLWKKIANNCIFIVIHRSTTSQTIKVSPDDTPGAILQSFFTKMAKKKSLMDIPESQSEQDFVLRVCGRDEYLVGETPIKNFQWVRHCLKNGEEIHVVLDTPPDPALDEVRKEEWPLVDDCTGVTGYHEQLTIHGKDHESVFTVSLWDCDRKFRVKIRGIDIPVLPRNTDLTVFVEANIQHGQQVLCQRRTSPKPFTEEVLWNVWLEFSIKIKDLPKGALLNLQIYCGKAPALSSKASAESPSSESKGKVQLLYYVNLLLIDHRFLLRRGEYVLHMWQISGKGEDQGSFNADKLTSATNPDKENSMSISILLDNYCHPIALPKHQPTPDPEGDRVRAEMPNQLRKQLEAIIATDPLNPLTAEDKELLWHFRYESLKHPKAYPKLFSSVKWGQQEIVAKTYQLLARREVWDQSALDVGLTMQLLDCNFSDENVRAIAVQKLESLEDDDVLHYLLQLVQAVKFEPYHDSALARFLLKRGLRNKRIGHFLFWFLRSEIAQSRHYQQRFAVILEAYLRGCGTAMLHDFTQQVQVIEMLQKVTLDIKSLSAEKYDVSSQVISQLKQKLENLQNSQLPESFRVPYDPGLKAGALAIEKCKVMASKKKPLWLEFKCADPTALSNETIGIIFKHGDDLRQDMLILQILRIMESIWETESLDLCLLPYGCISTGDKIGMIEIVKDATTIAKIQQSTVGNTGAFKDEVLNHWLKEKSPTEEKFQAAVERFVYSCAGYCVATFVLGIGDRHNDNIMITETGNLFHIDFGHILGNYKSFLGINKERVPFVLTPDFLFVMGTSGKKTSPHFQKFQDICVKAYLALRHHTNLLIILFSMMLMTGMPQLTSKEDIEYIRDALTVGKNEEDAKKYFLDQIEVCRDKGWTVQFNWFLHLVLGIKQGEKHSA
Chain of PI3K-δ (O00329 whole entry): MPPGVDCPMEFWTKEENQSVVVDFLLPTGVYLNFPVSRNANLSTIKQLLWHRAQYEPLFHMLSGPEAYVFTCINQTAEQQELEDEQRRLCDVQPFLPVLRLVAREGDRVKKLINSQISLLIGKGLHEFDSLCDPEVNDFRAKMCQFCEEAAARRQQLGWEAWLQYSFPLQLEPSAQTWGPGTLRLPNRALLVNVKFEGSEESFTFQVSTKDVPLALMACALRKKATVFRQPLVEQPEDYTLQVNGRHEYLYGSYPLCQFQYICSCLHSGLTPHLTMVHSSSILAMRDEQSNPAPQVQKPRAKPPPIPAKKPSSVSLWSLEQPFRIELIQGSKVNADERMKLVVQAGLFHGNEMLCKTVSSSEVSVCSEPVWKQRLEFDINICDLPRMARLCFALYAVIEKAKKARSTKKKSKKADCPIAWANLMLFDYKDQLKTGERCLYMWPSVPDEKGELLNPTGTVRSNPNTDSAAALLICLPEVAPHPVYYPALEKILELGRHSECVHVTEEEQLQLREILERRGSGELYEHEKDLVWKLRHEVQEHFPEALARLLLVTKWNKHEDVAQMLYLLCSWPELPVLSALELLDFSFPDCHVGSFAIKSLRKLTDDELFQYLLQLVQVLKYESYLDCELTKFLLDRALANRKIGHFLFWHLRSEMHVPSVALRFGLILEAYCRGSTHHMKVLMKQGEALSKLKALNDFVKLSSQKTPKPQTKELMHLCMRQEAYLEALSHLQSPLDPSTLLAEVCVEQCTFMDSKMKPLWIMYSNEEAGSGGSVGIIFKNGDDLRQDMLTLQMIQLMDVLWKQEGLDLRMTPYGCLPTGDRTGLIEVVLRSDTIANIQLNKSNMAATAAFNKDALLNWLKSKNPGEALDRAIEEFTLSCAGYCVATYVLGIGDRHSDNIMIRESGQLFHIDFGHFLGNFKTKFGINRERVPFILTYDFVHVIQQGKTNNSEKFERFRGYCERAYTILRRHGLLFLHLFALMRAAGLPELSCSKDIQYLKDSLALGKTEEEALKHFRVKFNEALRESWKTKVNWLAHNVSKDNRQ
Chain of PI3K-δ (P27986 whole entry partner): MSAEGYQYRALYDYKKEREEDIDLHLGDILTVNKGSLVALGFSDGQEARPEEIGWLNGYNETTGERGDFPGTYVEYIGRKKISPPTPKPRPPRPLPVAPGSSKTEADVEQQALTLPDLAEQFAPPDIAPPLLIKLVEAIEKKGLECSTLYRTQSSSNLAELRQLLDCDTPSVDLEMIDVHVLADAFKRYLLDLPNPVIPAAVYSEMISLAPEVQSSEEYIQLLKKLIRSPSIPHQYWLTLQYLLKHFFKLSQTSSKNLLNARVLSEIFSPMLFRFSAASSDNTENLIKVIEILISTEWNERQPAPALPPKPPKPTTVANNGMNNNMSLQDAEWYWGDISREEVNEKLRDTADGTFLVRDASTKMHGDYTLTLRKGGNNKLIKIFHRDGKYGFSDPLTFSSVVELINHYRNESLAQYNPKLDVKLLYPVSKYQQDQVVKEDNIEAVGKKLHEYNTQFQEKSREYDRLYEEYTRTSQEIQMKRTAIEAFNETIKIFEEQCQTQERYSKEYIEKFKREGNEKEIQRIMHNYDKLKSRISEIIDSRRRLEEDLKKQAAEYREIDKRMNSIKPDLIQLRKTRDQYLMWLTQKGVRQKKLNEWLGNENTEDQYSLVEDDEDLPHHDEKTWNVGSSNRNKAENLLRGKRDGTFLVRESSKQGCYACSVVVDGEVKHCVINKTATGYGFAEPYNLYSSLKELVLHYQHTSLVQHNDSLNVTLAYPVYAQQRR
Chain of PI3K-β (P42338 whole entry): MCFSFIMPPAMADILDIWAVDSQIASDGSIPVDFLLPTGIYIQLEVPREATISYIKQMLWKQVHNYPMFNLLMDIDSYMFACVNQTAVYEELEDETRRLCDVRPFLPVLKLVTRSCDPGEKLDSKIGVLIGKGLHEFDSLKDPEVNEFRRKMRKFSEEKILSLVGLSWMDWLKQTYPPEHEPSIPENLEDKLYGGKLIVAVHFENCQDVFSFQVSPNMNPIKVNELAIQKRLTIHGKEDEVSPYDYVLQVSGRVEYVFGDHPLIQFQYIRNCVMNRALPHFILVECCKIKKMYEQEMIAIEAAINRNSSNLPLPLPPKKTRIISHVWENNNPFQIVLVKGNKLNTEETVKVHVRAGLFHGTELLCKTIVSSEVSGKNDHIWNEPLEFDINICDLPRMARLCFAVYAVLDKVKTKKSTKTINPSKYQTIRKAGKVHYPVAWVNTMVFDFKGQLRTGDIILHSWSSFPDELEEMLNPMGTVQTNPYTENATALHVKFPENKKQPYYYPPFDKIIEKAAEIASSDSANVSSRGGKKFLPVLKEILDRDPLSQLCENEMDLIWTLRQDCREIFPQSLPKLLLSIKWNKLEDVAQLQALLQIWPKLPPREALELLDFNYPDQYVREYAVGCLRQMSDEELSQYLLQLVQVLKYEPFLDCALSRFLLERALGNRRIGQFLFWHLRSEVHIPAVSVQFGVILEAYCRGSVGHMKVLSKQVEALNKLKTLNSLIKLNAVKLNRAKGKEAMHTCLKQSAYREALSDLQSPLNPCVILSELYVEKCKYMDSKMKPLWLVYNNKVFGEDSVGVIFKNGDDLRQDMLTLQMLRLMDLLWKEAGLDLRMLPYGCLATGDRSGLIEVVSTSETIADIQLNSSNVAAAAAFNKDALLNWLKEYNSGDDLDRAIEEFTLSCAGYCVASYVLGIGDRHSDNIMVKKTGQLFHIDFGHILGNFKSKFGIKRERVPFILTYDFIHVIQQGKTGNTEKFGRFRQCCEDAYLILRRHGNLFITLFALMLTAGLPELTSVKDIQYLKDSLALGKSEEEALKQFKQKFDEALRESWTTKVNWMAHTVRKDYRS
Chain of PI3K-β (P27986 whole entry partner): as the sequence (P27986 whole entry partner) above

IC50 (PI3K-β): 360 nM | IC50 (PI3K-γ): 197 nM | IC50 (class I PI3K enzymes): 52 to 473 nM | IC50 (PI3K-δ): 473 nM
SMILES: Cc1ccc(-c2cc(C(=O)NN=C(/C=C\c3ccc(Cl)cc3)c3ccc(N)cc3)c3ccccc3n2)cc1 [Compound 9j, N’-((Z)-1-(4-Aminophenyl)-3-(4-chlorophenyl)allylidene)-2-(4-methylphenyl)quinoline-4-carbohydrazide]
GI50 (SF-539; Homo sapiens): 2430 nM | GI50 (SN12C; Homo sapiens): 6840 nM | GI50 (OVCAR-8; Homo sapiens): 5250 nM | GI50 (NCI-H522; Homo sapiens): 622 nM | GI50 (SF-268; Homo sapiens): 4090 nM | GI50 (IGROV1; Homo sapiens, IGROV-1): 6480 nM | levels of Bcl-2 [1]: decreased | levels of cleaved caspase 8 [1]: not altered | levels of Bax [1]: increased | levels of cleaved caspase 3 [1]: increased | levels of cleaved caspase 9 [1]: increased | GI50 (BT-549; Homo sapiens): 3920 nM | GI50 (NCI/ADR-RES; Homo sapiens): 2540 nM | GI50 (RXF 393; Homo sapiens): 1630 nM | GI50 (HS 578T; Homo sapiens, Hs-578T): 4680 nM | GI50 (UACC-257; Homo sapiens): 33700 nM | GI50 (SK-MEL-5; Homo sapiens): 2500 nM | percentage of cells in the G2/M phase (K-562 cells [2]; 1 μM): 5.1% | percentage of cells in the G2/M phase (K-562 cells [2]; 3 μM): 16.6% | percentage of cells in the G2/M phase (K-562 cells [2]; 6 μM): 41.7% | GI50 (HL-60(TB); Homo sapiens, HL-60): 3490 nM | GI50 (TK-10; Homo sapiens): 8510 nM | GI50 (NCI-H460; Homo sapiens): 3510 nM | expression of wild type p53 [3]: upregulated | expression of Cdc2 [3]: attenuated | expression of cyclin B1 [3]: attenuated | expression of p21 [3]: significantly induced | IC50 ([4]; Homo sapiens, A549, 24 h, read-out: A549 (IC50 μM), trypan blue exclusion, mean ± SD): 5 µM | IC50 [4, 9]: 5.29 ± 0.19 µM | percentage of cells in the G2/M phase (A549 cells [5]; 1 μM): 6.22% | percentage of cells in the G2/M phase (A549 cells [5]; 3 μM): 15.8% | percentage of cells in the G2/M phase (A549 cells [5]; 6 μM): 59.6% | GI50 (UACC-62; Homo sapiens): 2060 nM | GI50 (HCC-2998; Homo sapiens, HCC 2998): 4280 nM | GI50 (MDA-MB-435; Homo sapiens): 1000 nM | GI50 (SK-MEL-28; Homo sapiens): 6230 nM | GI50 (MALME-3M; Homo sapiens, Malme-3M): > 100000 nM | percentage of apoptotic cells (A549 cells [6]; 1 μM): 14.68% | percentage of apoptotic cells (A549 cells [6]; 3 μM): 14.07% | percentage of apoptotic cells (A549 cells [6]; 6 μM): 28.1% | proportion of apoptotic cells compared to control (A549 cells [6]): did not result in changes | GI50 (SR; Homo sapiens): 3290 nM | expression of non-functional p53 [7]: no effect | expression of Cdc2 [7]: attenuated | expression of cyclin B1 [7]: attenuated | expression of p21 [7]: significantly induced | GI50 (LOX IMVI; Homo sapiens): 4000 nM | percentage of apoptotic cells (K-562 cells [8]; 1 μM): 16.65% | percentage of apoptotic cells (K-562 cells [8]; 3 μM): 39.4% | percentage of apoptotic cells (K-562 cells [8]; 6 μM): 47.1% | IC50 (A549 and K-562 cells; Homo sapiens): 1910 to 5290 nM | GI50 (UO-31; Homo sapiens): 2200 nM | GI50 (M14; Homo sapiens): 2540 nM | GI50 (MDA-MB231/ATCC; Homo sapiens, MDA-MB-231): 3940 nM | GI50 (COLO 205; Homo sapiens): 2800 nM | GI50 (A549/ATCC; Homo sapiens, A549): 4790 nM | GI50 (DU-145; Homo sapiens): 3680 nM | GI50 (MDA-MB-468; Homo sapiens): 4910 nM | GI50 (A498; Homo sapiens): 1640 nM | GI50 (HOP-62; Homo sapiens): 4620 nM

IC50 (PI3K-β; read-out: IC50 (nM) PI3K-β, ADP-Glo, ATP 30 μM): 296 nM | IC50 (PI3K-γ; read-out: IC50 (nM) PI3K-γ, ADP-Glo, ATP 10 μM): 52 nM | IC50 (class I PI3K enzymes): 52 to 473 nM | IC50 (PI3K-δ; read-out: IC50 (nM) PI3K-δ, ADP-Glo, ATP 10 μM): 438 nM
SMILES: COc1ccc(-c2cc(C(=O)NN=C(/C=C\c3ccc(Cl)cc3)c3ccc(N)cc3)c3ccccc3n2)cc1 [Compound 9i, N’-((Z)-1-(4-Aminophenyl)-3-(4-chlorophenyl)allylidene)-2-(4-methoxphenyl)quinoline-4-carbohydrazide]
GI50 (SF-539; CNS cancer, five dose assay): 1410 nM | GI50 (SN12C; Renal cancer, five dose assay): 4270 nM | GI50 (OVCAR-8; [10]): 4160 nM | GI50 (NCI-H522; [11]): 307 nM | GI50 (SF-268; CNS cancer, five dose assay): 2190 nM | GI50 (IGROV1; Ovarian cancer, IGROV1, five dose assay): 4980 nM | levels of Bcl-2 [1]: decreased | levels of cleaved caspase 8 [1]: not altered | levels of Bax [1]: increased | levels of cleaved caspase 3 [1]: increased | levels of cleaved caspase 9 [1]: increased | GI50 (BT-549; Breast cancer, five dose assay): 2040 nM | GI50 (NCI/ADR-RES; [10]): 519 nM | GI50 (RXF 393; Renal cancer, five dose assay): 698 nM | GI50 (HS 578T; Breast cancer, HS 578T, five dose assay): 1050 nM | GI50 (UACC-257; Melanoma, five dose assay): > 100000 nM | GI50 (SK-MEL-5; Melanoma, five dose assay): 701 nM | percentage of cells in the G2/M phase (K-562 cells [2]; 1 μM): 2.95% | percentage of cells in the G2/M phase (K-562 cells [2]; 3 μM): 30.7% | percentage of cells in the G2/M phase (K-562 cells [2]; 6 μM): 49.3% | GI50 (HL-60(TB); Leukemia, HL-60(TB), five dose assay): 2540 nM | GI50 (TK-10; Renal cancer, five dose assay): 52300 nM | GI50 (NCI-H460; [11]): 1890 nM | expression of wild type p53 [3]: upregulated | expression of Cdc2 [3]: attenuated | expression of cyclin B1 [3]: attenuated | expression of p21 [3]: significantly induced | IC50 [4, 9]: 4 µM and 3.9 µM and 3.91 µM | percentage of cells in the G2/M phase (A549 cells [5]; 1 μM): 11% | percentage of cells in the G2/M phase (A549 cells [5]; 3 μM): 61.2% | percentage of cells in the G2/M phase (A549 cells [5]; 6 μM): 76.2% | GI50 (UACC-62; Melanoma, five dose assay): 556 nM | GI50 (HCC-2998; Colon cancer, HCC-2998, five dose assay): 3400 nM | GI50 (MDA-MB-435; Melanoma, five dose assay): 305 nM | GI50 (SK-MEL-28; Melanoma, five dose assay): 3780 nM | GI50 (MALME-3M; Melanoma, MALME-3M, five dose assay): > 100000 nM | percentage of apoptotic cells (A549 cells [6]; 1 μM): 13.21% | percentage of apoptotic cells (A549 cells [6]; 3 μM): 22.73% | percentage of apoptotic cells (A549 cells [6]; 6 μM): 35.9% | proportion of apoptotic cells compared to control (A549 cells [6]): did not result in changes | GI50 (SR; Leukemia, five dose assay): 595 nM | expression of non-functional p53 [7]: no effect | expression of Cdc2 [7]: attenuated | expression of cyclin B1 [7]: attenuated | expression of p21 [7]: significantly induced | GI50 (LOX IMVI; Melanoma, five dose assay): 1560 nM | percentage of apoptotic cells (K-562 cells [8]; 1 μM): 25.79% | percentage of apoptotic cells (K-562 cells [8]; 3 μM): 46.2% | percentage of apoptotic cells (K-562 cells [8]; 6 μM): 46.6% | IC50 (A549 and K-562 cells; range over A549 and K-562): 1910 to 5290 nM | GI50 (UO-31; Renal cancer, five dose assay): 1550 nM | GI50 (M14; Melanoma, five dose assay): 1160 nM | GI50 (MDA-MB231/ATCC; Breast cancer, MDA-MB231/ATCC, five dose assay): 3280 nM | GI50 (COLO 205; Colon cancer, five dose assay): 1990 nM | GI50 (A549/ATCC; Non-small cell lung cancer, A549/ATCC, five dose assay): 2330 nM | GI50 (DU-145; Prostate cancer, five dose assay): 3160 nM | GI50 (MDA-MB-468; Breast cancer, five dose assay): 2950 nM | GI50 (A498; Renal cancer, five dose assay): 375 nM | GI50 (HOP-62; [11]): 3210 nM

— publication PMC6931042 (Bioorganic chemistry, 2018)
